From patent US20070213301A1 (ACHILLION PHARMACEUTICALS, INC., priority 2006, published 2007)

Test system: HCV replicon
Experiment: HCV replicon replication assay (NPTII ELISA)
Format: cell-based, Hepatitis C virus (Huh-7 cells)
Details: Hepatitis C virus, Huh-7, 72 h, inhibition of HCV replicon replication in Huh-7 HCV replicon-containing cells, three days incubation, NPT level by ELISA; read-out: EC50
Protocol: Compounds claimed herein are tested for the ability to inhibit viral replication of the Hepatitis C replicon in cultured cells in which the HCV replicon construct has been incorporated. The HCV replicon system was described by Bartenschlager, et. al (Science, 285, pp. 110-113 (1999)). The replicon system is predictive of in vivo anti-HCV activity; compounds that are active in humans uniformly evidence activity in the replicon assay.
In this assay HCV replicon containing cells are treated with different concentrations of the test compound to ascertain the ability of the test compound to suppress replication of the HCV replicon. As a positive control, HCV replicon-containing cells are treated with different concentrations of interferon alpha, a known inhibitor of HCV replication. The replicon assay system includes Neomycin Phosphotransferase (NPT) as a component of the replicon itself in order to detect the transcription of replicon gene products in the host cell. Cells in which the HCV replicon is actively replicating have high levels of NPT; the level of NPT is proportional to HCV replication. […] The NPT level of each sample is measured using a captured ELISA.
The HCV replicon contains, 5′-3′, the HCV-IRES, the neomycin phosphotransferase (neo) gene, the IRES of encephalomyocarditis virus, which directs translation of HCV sequences NS3 to NS5B, and the 3′-NTR. The sequence of the HCV replicon has been deposited in GenBank (Accession no. AJ242652).
The replicon is transfected into Huh-7 cells using standard methods such as electroporation.
The cells are then seeded onto 96-well plates at a density of 6000-7500 cells/100 microliters/well (6-7.5×10^5 cells/10 ml/plate). The plates are then incubated at 37° C. in a 5% CO2 incubator.
HCV replicon-containing cells are rinsed with once PBS once; 2 mls of trypsin are then added. Cells are incubated at 37° C. in a 5% CO2 incubator for 3-5 minutes. 10 mls of complete medium is added to stop the reaction. Cells are blown gently, put into a 15 ml tube, and spun at 1200 rpm for four minutes. The trypsin/medium solution is removed and 5 mls of medium (500 ml DMEM (high glucose)) from BRL catalog #12430-054; 50 mls 10% FBS, 5% Geneticin G418 (50 mg/ml, BRL catalog #10131-035), 5 ml MEM non-essential amino acids (100× BRL #11140-050) and 5 ml pen-strep (BRL #15140-148) is added. The cells and media are mixed carefully
Cells are plated with screening medium (500 ml DMEM (BRL #21063-029), 50 ml FBS (BRL #10082-147) and 5 ml MEM non-essential amino acid (BRL #11140-050) at 6000-7500 cells/100 μl/well of 96 well plate (6-7.5×10^5 cells/10 ml/plate). Plates are placed into 37° C. 5% CO2 incubator overnight.
The following morning, drugs (test compounds or interferon alpha) are diluted in 96 well U bottom plates with media or DMSO/media, depending on the final concentration chosen for screening. Generally for 6 concentrations of each test compounds ranging from 10 micromolar to 0.03 micromolar are applied. 100 μl of the test compound dilution is placed in wells of the 96 well plate containing the HCV replicon cells. Media without drug is added to some wells as a negative controls. DMSO is known to affect cell growth. Therefore, if drugs diluted in DMSO are used, all wells, including negative control (media only) and positive control (interferon alpha) wells, must contain the same concentration of DMSO, for single dose screening. The plates are incubated at 37° C. in a humidified 5% CO2 environment for three days.
On day four, the NTPII assay is quantitated. The medium is poured from the plates and the plates are washed once in 200 μl of PBS. The PBS is then decanted and the plates tapped in a paper towel to remove any remaining PBS. Cells are fixed in situ with 100 μl/well of pre-cooled (−20° C.) methanol:acetone (1:1) and the plates are placed at −20° C. for 30 minutes.
The fixing solution is poured from the plates and the plates allowed to air-dry completely (approximately one hour). […]

Structure (SMILES) | EC50 [µM]
CCCCCCCCOc1ccc(N(C(=O)C(C)OC(C)=O)c2nc(-c3ccc(C)nc3)cs2)cc1 (stereo not shown) [Compound 63, 1-((4-(6-methylpyridin-3-yl)thiazol-2-yl)(4-(octyloxy)phenyl)amino)-1-oxopropan-2-yl acetate] | < 1
CCCCCOc1ccc(N(C(N)=O)c2nc(-c3ccc(C(=O)N(C)C)nc3)cs2)cc1C(F)(F)F [Compound 77, N,N-dimethyl-5-(2-(1-(4-(pentyloxy)-3-(trifluoromethyl)phenyl)ureido)thiazol-4-yl)picolinamide] | < 1
CCCCCOc1ccc(N(C(=O)C(=O)OC)c2nc(-c3cccnc3)cs2)cc1F [Compound 27, methyl 2-((3-fluoro-4-(pentyloxy)phenyl)(4-(pyridin-3-yl)thiazol-2-yl)amino)-2-oxoacetate] | < 1
CCCCCOc1ccc(N(C(=O)C(=O)OC)c2nc(-c3cccnc3)cs2)cc1C(F)(F)F [Compound 28, methyl 2-oxo-2-((4-(pentyloxy)-3-(trifluoromethyl)phenyl)(4-(pyridin-3-yl)thiazol-2-yl)amino)acetate] | < 1
CCCCCOc1ccc(N(C(N)=O)c2nc(-c3ccc(F)c(F)c3)cs2)cc1F [Compound 113, 1-(4-(3,4-difluorophenyl)thiazol-2-yl)-1-(3-fluoro-4-(pentyloxy)phenyl)urea] | 1 to 10
NC(=O)N(c1ccc(OCC2CCCCC2)c(F)c1)c1nc(-c2cccnc2)cs1 [Compound 119, 1-(4-(cyclohexylmethoxy)-3-fluorophenyl)-1-(4-(pyridin-3-yl)thiazol-2-yl)urea] | < 1
CCCCCCCCc1ccc(N(C(=O)C(=O)OC)c2nc(-c3cccnc3)cs2)cc1 [Compound 39, methyl 2-((4-octylphenyl)(4-(pyridin-3-yl)thiazol-2-yl)amino)-2-oxoacetate] | < 1
CC(C)COc1ccc(N(C(N)=O)c2nc(-c3cccnc3)cs2)cc1C(F)(F)F [Compound 151, 1-(4-isobutoxy-3-(trifluoromethyl)phenyl)-1-(4-(pyridin-3-yl)thiazol-2-yl)urea] | < 1
CCCCCOc1ccc(N(C(N)=O)c2nc(-c3ccccn3)cs2)cc1F [Compound 112, 1-(3-fluoro-4-(pentyloxy)phenyl)-1-(4-(pyridin-2-yl)thiazol-2-yl)urea] | 1 to 10
CCCCOc1ccc(N(C(N)=O)c2nc(-c3ccc(C)nc3)cs2)cc1C(F)(F)F [Compound 132, 1-(4-butoxy-3-(trifluoromethyl)phenyl)-1-(4-(6-methylpyridin-3-yl)thiazol-2-yl)urea] | < 1
CC(C)COc1ccc(N(C(N)=O)c2nc(-c3ccc4c(c3)NC(=O)CO4)cs2)cc1C(F)(F)F [Compound 149, 1-(4-isobutoxy-3-(trifluoromethyl)phenyl)-1-(4-(3-oxo-3,4-dihydro-2H-benzo[b][1,4]oxazin-6-yl)thiazol-2-yl)urea] | < 1
CCCCCCCCOc1ccc(N(C(N)=O)c2nc(-c3cccnc3)cs2)cc1C(F)(F)F [Compound 130, 1-(4-(octyloxy)-3-(trifluoromethyl)phenyl)-1-(4-(pyridin-3-yl)thiazol-2-yl)urea] | < 1
NC(=O)N(c1ccc(OCC2CCCCC2)c(F)c1)c1nc(-c2ccc(F)c(F)c2)cs1 [Compound 120, 1-(4-(cyclohexylmethoxy)-3-fluorophenyl)-1-(4-(3,4-difluorophenyl)thiazol-2-yl)urea] | < 1
CCCCCOc1ccc(N(C(N)=O)c2nc(-c3cccnc3)c(F)s2)cc1C(F)(F)F [Compound 156, 1-(5-fluoro-4-(pyridin-3-yl)thiazol-2-yl)-1-(4-(pentyloxy)-3-(trifluoromethyl)phenyl)urea] | < 1
CCCCCOc1ccc(N(C(N)=O)c2nc(-c3ccc(F)cc3)cs2)cc1C(F)(F)F [Compound 69, 1-(4-(4-fluorophenyl)thiazol-2-yl)-1-(4-(pentyloxy)-3-(trifluoromethyl)phenyl)urea] | < 1
NC(=O)N(c1ccc(OCC2CCCCC2)c(F)c1)c1nc(-c2ccncc2)cs1 [Compound 142, 1-(4-(cyclohexylmethoxy)-3-fluorophenyl)-1-(4-(pyridin-4-yl)thiazol-2-yl)urea] | 1 to 10
